Test results reported in article PMC7468908 (Nutrients, 2020).
Read-outs that look alike come from different tables or passages of the source.

Assays:
Type in all cases: biochemical
CYP2C19 = target: T1, CYP2C19 (Homo sapiens, UniProt P33261); test: CYP2C19-catalyzed S-mephenytoin hydroxylation (CypExpress kit, HPLC); details: for concentration inducing statistically significant (p < 0.01) decrease in metabolite formation, CYP2C19: substrate 5 µM S-mephenytoin
T1 construct: purchased Sigma-Aldrich
Protocol: Inhibition of CYP2C19 [47], 3A4 [48], and 2D6 [49] by Q and its conjugates was tested based on our previously reported methods, without modifications.
S-mephenytoin and 4-hydroxymephenytoin (CYP2C19 assay), testosterone and 6β-hydroxytestosterone (CYP3A4 assay), as well as dextromethorphan and dextrorphan (CYP2D6 assay) were quantified using the previously described methods, with minor modifications.
In CYP2C19 assay, the mobile phase contained acetonitrile, methanol (VWR), and sodium phosphate buffer (10 mM, pH 4.55) (17:10:73 v/v%). Samples were driven through a guard column (Phenomenex Security Guard C8, 4.0 × 3.0 mm) linked to an analytical column (Phenomenex C8 100 × 4.6 mm; 2.6 µm), with a 1 mL/min flow rate, at room temperature. After the isocratic elution, S-mephenytoin and 4-hydroxymephenytoin were detected at 230 nm.

BCRP [1] = target: T2, BCRP (Homo sapiens, UniProt Q9UNQ0); test: BCRP vesicular transport of lucifer yellow in Sf9 membrane vesicles; details: for concentration inducing statistically significant (p < 0.01) decrease in transport of LY by BCRP: 10 μM lucifer yellow; for IC50: vesicular uptake of 10 μM lucifer yellow
T2 construct: made in house; host or cells: Sf9 insect cells (baculovirus)
T2 sequence (Q9UNQ0 1-655): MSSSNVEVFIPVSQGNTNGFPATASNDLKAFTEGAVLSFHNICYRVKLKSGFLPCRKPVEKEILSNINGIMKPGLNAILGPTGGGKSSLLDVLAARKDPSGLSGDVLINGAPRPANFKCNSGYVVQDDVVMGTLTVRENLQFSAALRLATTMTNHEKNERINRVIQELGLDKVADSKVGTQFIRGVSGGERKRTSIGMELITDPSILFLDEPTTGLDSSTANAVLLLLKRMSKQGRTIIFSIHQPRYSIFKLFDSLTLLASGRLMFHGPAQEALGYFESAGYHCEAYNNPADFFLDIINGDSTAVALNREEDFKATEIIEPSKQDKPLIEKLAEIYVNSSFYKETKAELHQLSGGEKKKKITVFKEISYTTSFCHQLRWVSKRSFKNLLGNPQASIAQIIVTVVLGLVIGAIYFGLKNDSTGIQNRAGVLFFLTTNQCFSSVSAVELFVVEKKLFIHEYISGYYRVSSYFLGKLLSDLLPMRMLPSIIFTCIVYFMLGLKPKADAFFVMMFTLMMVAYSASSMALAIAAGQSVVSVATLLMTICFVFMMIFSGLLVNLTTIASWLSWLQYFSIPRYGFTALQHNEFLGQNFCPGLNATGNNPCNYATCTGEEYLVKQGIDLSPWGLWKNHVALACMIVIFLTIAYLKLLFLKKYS
Protocol: Experiments were performed in insect membrane vesicles, as describe previously. Human BCRP and MRP2 were expressed in Sf9 insect cells by baculoviruses. At the third day of infection, cells were collected and membrane vesicles were obtained by mechanical disruption and differential centrifugation. To get full activity for BCRP, the cholesterol levels of the vesicles were adjusted to the level of mammalian membranes. Vesicles were stored at -80°C, total protein content of preparations was measured by the Lowry method (used as a reference of the quantity). Membrane vesicles (50 μg protein/sample) were incubated at 37 °C for 10 min (without or with 4 mM of Mg-ATP) in 50 μL volume, in the presence of transporter specific fluorescent substrates (10 μM lucifer yellow (LY) for BCRP and 5 μM 5(6)-Carboxy-2′,7′-dichlorofluorescein (CDCF) for MRP2). […] ATP dependent uptake of fluorescent substrates was examined in the presence of flavonoids (up to 50–200 μM). Each compound was dissolved in DMSO and solvent controls were applied in all experiments. […] After incubation, samples were rapidly filtered and washed on filter plate (MSFBN6B10, Millipore, Burlington, MA, USA). Accumulated substrates in vesicles were solved back from the filter by 100 μL of 10% sodium dodecyl sulfate and centrifuged into another plate. A 100-μL volume of fluorescence stabilizer was added to the samples (DMSO for LY, and 0.1 M NaOH for CDCF). Fluorescence of samples was measured by a plate reader (Victor X3 Perkin-Elmer, Waltham, MA, USA) at appropriate wavelengths (filters were λex = 405 nm and λem = 535 nm for LY as well as λex = 492 nm and λem = 635 nm for CDCF).

BCRP [2] = target: T2, BCRP; test: BCRP vanadate sensitive ATPase activity in Sf9 membrane vesicles; details: 3 mM Mg-ATP, 25 min, 37 °C
Protocol: ATPase activity was measured on Sf9 membrane vesicles containing human BCRP prepared as described in 2.5. Appropriate amounts of vesicles (10 μg/50 μL) were used in the assays. Experimental parameters were the same as it has been earlier reported. Membrane vesicles were incubated with 3 mM of Mg-ATP for 25 min at 37 °C. Effects of flavonoids were investigated up to 50 μM. […] ABC transporter function was determined as vanadate sensitive ATPase activity. Liberated inorganic phosphate was measured by a colorimetric reaction as described. Absorbance of samples was measured after 25 min at 660 nm.

[3] = S-mephenytoin hydroxylation, substrate 5 µM, read-out: IC50 for CYP2C19

T1 sequence (P33261 whole entry): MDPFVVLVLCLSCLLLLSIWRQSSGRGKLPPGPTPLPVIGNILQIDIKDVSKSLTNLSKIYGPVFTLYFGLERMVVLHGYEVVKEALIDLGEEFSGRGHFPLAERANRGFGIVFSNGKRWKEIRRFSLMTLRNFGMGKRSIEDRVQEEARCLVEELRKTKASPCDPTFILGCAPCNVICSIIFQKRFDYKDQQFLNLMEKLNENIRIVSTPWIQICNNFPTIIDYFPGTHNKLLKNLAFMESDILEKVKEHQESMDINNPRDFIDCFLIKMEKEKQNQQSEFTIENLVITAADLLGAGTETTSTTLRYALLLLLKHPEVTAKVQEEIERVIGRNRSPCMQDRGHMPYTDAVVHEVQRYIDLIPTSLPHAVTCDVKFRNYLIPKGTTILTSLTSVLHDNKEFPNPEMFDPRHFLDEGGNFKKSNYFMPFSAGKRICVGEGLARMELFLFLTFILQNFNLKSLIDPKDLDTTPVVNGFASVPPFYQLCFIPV

IC50 (CYP2C19; [3]) [µM]	concentration inducing statistically significant (p < 0.01) decrease in metabolite formation, CYP2C19 (CYP2C19) [µM]	concentration inducing statistically significant (p < 0.01) decrease in transport of LY by BCRP (BCRP [1]) [µM]	IC50 (BCRP [1]) [µM]	concentration inducing statistically significant (p < 0.01) increase in ATPase activity of BCRP (BCRP [2]) [µM]	Structure (SMILES)	IC50 (CYP2C19) [µM]
> 30	20	0.2	3.2	0.4	O=c1c(O)c(-c2ccc(O)c(OS(=O)(=O)O)c2)oc2cc(O)cc(O)c12 [Q3′S, quercetin-3′-sulfate]	
> 30	20	1.0	13.5	50	O=C(O)C1OC(Oc2c(-c3ccc(O)c(O)c3)oc3cc(O)cc(O)c3c2=O)C(O)C(O)C1O (centres unmarked) [Q3G, quercetin-3-glucuronide]	
> 30	20	20	> 30	10	COc1cc(-c2oc3cc(O)cc(O)c3c(=O)c2OC2OC(C(=O)O)C(O)C(O)C2O)ccc1O (centres unmarked) [I3G, isorhamnetin-3-glucuronide]	

Structure (SMILES)	IC50 (CYP2C19; [3]) [µM]	concentration inducing statistically significant (p < 0.01) decrease in metabolite formation, CYP2C19 (CYP2C19) [µM]	concentration inducing statistically significant (p < 0.01) decrease in transport of LY by BCRP (BCRP [1]) [µM]	IC50 (BCRP [1]) [µM]	concentration inducing statistically significant (p < 0.01) increase in ATPase activity of BCRP (BCRP [2]) [µM]	IC50 (CYP2C19) [µM]
COc1cc(-c2oc3cc(O)cc(O)c3c(=O)c2O)ccc1O [IR, isorhamnetin]		20	0.05		0.02	> 30
O=c1c(O)c(-c2ccc(O)c(O)c2)oc2cc(O)cc(O)c12 [Q, quercetin]		10	0.05	0.13	0.08	
